Test results reported in patent publication US11753603B2, “Acidic cleaning and disinfecting compositions comprising a citric/methansulfonic acid mixture” (THE CLOROX COMPANY, priority 2020, dated 2023).

System: bacterial population
Assay: Suspension test (kill in 10 minutes)
Conditions: 0.1% citric acid alone
Protocol: Formula A of Table I includes addition of LAE (0.1%) plus APG (1.0%) and enables the use of citric acid levels as low at 0.1% with complete kill in suspension test in 10 minutes.

O=C(O)CC(O)(CC(=O)O)C(=O)O [citric acid]
kill in suspension test: little or no kill
